The record followed here is US7196163B2, “Assays using amyloid precursor proteins with modified β-secretase cleavage sites to monitor β-secretase activity” (Merk & Co., Inc., priority 2001, dated 2007).

A word on the Km: it is the substrate concentration at which the rate is half of its maximum.

Ends that are not written are not given here. coumarin = not defined here

One experiment has as its system anti-EVEFR antibodies. Put plainly: ORIGEN non-sandwich competition of peptides with binding of ruthenylated anti-EVEFR antibodies to biotinylated EVEFR. Also noted: species or system rabbit. The note with it: peptide added over a broad concentration range; FIGS. 3A, 3B. As to the method:
Antibody specificity also was evaluated for both lots. An ORIGEN Analyzer (described below) was utilized in a non-sandwich assay to compare the ability of related polypeptides to compete with the binding of ruthenylated anti-EVEFR antibodies to biotinylated EVEFR (SEQ. ID. NO. 58). Certain peptides and conjugated peptides were added as treatments over a broad concentration range, and competitive titrations were made. […] The normal antigen is not acetylated.
Additionally, the specificity of the antibody raised against the EVEFR (SEQ.ID.NO.:58) sequence is tight enough that a conservative change in the epitope presented to the antibody, namely DVEFR(SEQ ID. NO. 60) where the NH-terminus E is conservatively changed to D, the antibody would only recognize the bona fide cleavage product. When measuring products in a cell-based environment, where thousands and perhaps millions of different proteins and epitopes are presented to the antibody, such specificity is required for the absolute measurement of the specific BACE cleavage product. Overall, the polyclonal rabbit antibodies raised against EVEFR (SEQ.ID.NO.:58) are shown to be sufficiently specific for use in detection analyses.
In certain embodiments the antibodies of the present invention are used in an electrochemiluminescence (ECL) detection method known in the art as “Origen” technology (Yang et al., 1994, Bio/Technology 12:193–194; Khorkova et al., 1998. Journal of Neuroscience Methods 82:159–166), and an Origen 1.5 Analyzer (Igen Inc., Gaithersburg, Md.). In embodiments using this ECL-based ORIGEN technology, each purified antibody lot is derivatized to a ruthenium tris-bipyridyl compound. The following provides one example of one of such embodiments.

A further experiment deals with HEK293T cells. Put plainly: Aβ (IP/Western) and sAPP (Western) produced by APP β-site mutants transiently transfected into HEK293T cells. Format: cell-based. To be noted: for Aβ level / sAPP level: transfected into 293T cells; for sAPP level: Western blot with LN27; for Aβ production compared with Swedish mutant and wild type APP695: HEK293T cells. The text has this:
In order to assess the relative suitability of modified β-secretase substrates as substrates that are more reactive than the wild type KMDA cleavage site, plasmid DNA constructs were made expressing 21 different modified β-secretase cleavage site sequences. Table 1, below, summarizes data obtained from most of these modified β-secretase substrates in HEK293T cells. The HEK293T cells were transfected with plasmids containing the genetic sequences for the APP695 polypeptides that contain each of these beta-site substitutions. These plasmids were prepared using the method described above in Example 1. Transient transfection was performed using LipofectaminePlus reagent (Gibco/BRL, Rockville, Md.) according to the instructions of the manufacturer. Media was harvested 48 hrs post transfection. Then Western blot analysis was used to determine levels of sAPP and IP/Western to determine levels of Aβ. Several volumes of conditioned media, 20 μl, 10 μl, 5 μl, 2.5 μl, from the transiently transfected cells were run on 10% SDS-PAGE gels and transferred to PVDF for the measurement of sAPP. Each blot contained a titration of wild type APP transfected conditioned media to normalize for any experimental variations derived from transferring of the gels and western blot detection. The blots were then probed with the antibody LN27 (Zymed, Calif.) to detect the secreted APP, sAPP. Densitometry of each western blot determined the relative amount of total APP expressed in each transfection.
To determine the levels of Aβ, each of the conditioned media was immuno-precipitated and analyzed via the following method. 5 μg of monoclonal antibody G2-10 (a monoclonal antibody that immunologically binds to the carboxyl end of Aβ40, licensed from University of Heidelberg) was added to 1 ml of each conditioned media. The mixture was rotated overnight at 4° C. for 16 hours. 25 μl of a 50% slurry of Protein A sepharose Fast flow beads (Amersham, N.J.) was added and incubation continued, rotating, for 2 hours at 4° C. The beads were pelleted and the supernatant was removed. The beads were washed once with 1 ml PBS. This material was then run on SDS-Tricine gels for analysis. 20 μl of 2×tricine loading buffer was added to the pellet and the mixture was heated at 95° C. for 5 minutes. A pipette tip was used to mix and load the whole mixture (beads included) onto a Bio-Rad 10–20% Tricine gel. The gels were electrophoresed at 125 Volts for 2 hours and 15 minutes and then transferred onto 0.2 μm nitrocellulose backed by a 0.1 μm nitrocellulose membrane for 75 minutes at 100V constant. Blots were then washed in PBS and boiled in PBS for 5 minutes before blocking in PBS plus 0.05% Tween-20 (PBST) with 5% non-fat milk for 60 minutes at room temperature. The milk was washed off twice with PBST and the blots were incubated overnight at 4° C. with G2-10 in PBST (1:1000 dilution). Blots were washed five times for 5 minutes each with large volumes of PBST and the secondary antibody of Goat anti-mouse IgG2b-HRP (Southern Biotechnology Associates, Inc., Birmingham, Ala.) was added at 1:5000 in PBST-5% milk and incubated, rocking, for 1 hour at room temperature. The blots were again washed, five times for 10 minutes each in large volumes of PBST. The substrate Pico ECL (Pierce) was added for 5 minutes and the blots were exposed to Kodak BioMax film. After western analysis was complete, the bands were quantitated by densitometry. For both the sAPP and the Aβ, the GFP control plasmid transfection serves as the background reference level (1×).
(In general: In western blotting, separated proteins are transferred to a membrane and probed.)

The subject of another experiment is 2081 antibody. The experiment in a line: Competition of peptides against biotinylated-SEVNF for binding of the 2081 antibody. Also noted: species or system rabbit. Here is the method:
To determine the specificity of the 2081 antibody, competition experiments against the biotinylated-SEVNF with the following peptides were performed: SEVNF, SEVN, SEVNFE, SEVNL, and SEVNLD. The experiment was performed similar to the experiment outlined in Example 2 to determine the specificity of antibody 2081.

The target in the next experiment is BACE 1 (Homo sapiens, UniProt P56817). Put plainly: Homogeneous end point HPLC assay of BACE 1 cleavage of coumarin substrate. It is filed as biochemical. As to the method: A typical reaction contains 2 nM enzyme, 1.0 μM of the substrate, and buffer (50 mM NaOAc, pH 4.5, 0.1 mg/ml BSA, 0.2% CHAPS, 15 mM EDTA and 1 mM deferoxamine) in a total reaction volume of 100 μL. The reaction is proceeded for 30 min and the reaction is stopped by the addition of 25 μL of 1 M Tris-HCl, pH 8.0. The resulting reaction mixture was loaded on the HPLC and the product was separated from substrate with 5 min linear gradient. […] The enzyme used in these studies was soluble (transmembrane domain and cytoplasmic extension excluded) human protein produced in a baculovirus expression system. […] All experiments were conducted at room temperature using the standard reaction conditions described above. To determine the IC50 of the compound, four parameters equation is employed for curve fitting.
BACE 1, sequence (P56817 46-457 limits assumed): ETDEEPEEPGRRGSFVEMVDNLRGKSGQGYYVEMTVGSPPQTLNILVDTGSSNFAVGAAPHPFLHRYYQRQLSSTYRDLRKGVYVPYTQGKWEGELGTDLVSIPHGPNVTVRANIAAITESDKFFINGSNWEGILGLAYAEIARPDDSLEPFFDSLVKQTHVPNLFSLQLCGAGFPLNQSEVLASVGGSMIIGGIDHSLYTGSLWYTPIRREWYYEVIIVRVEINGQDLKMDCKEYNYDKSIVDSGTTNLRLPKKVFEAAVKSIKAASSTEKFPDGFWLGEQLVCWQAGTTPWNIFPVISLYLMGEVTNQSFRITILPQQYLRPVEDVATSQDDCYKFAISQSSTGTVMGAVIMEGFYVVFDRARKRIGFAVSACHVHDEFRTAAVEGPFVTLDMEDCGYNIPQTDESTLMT

The subject of experiment [1] is immortalized β-secretase-/-mouse fibroblast cells. Put plainly: Aβ production after transfection into immortalized β-secretase-/- mouse fibroblast cells, with or without human β-secretase. Format: cell-based. To be noted: no β-secretase co-transfected. The text has this: Production of Aβ in β-secretase-/-cells could be rescued by co-transfection of the APP-derived polypeptides comprising modified β-secretase cleavage site sequences with human β-secretase.

Consider “DVEFR (peptide for use in antibody specificity evaluation)”, for which, in the experiment on anti-EVEFR antibodies, the “competition with biotinylated EVEFR for anti-EVEFR binding” value (from here on “competition with biotinylated EVEFR”) was “somewhat higher level of interference”.
Consider “NFDV: APP695-derived polypeptide with NFDV at the β-secretase cleavage site”, for which, in the experiment with HEK293T cells, the Aβ level entry is “below the limit of detection” and the sAPP level result is reported as “below the limit of detection”.
For “DAEFR (peptide for use in antibody specificity evaluation)”, in the experiment on anti-EVEFR antibodies, the “competition with biotinylated EVEFR” value is “unable to compete for binding”.
Take “SEVNF (SEVNF-OH) [five C-terminal amino acids of the modified sAPPβ fragment]”: the “competition against biotinylated-SEVNF for binding of the 2081 antibody” value (from here on “competition against biotinylated-SEVNF”) with 2081 antibody is reported as “could compete”.
“EVEFR (peptide simulating cleaved portion from carboxy side of novel sequence at known enzyme cleavage site) [penta-peptide at the amino-terminal end of CTFβ from NFEV or FFEV substrates]”: the “competition with biotinylated EVEFR” value with anti-EVEFR antibodies was “competed with biotinylated EVEFR”.
As to coumarin-CO-REVNFEVEFR, the “substrate processed by BACE 1” value on BACE 1 (2 nM enzyme, 1.0 μM substrate, 30 min, pH 4.5, room temperature) is “less than 10%”. Besides, the Km on BACE 1 (cannot be determined due to limit of solubility of the substrate) is more than 100 µM.
As to “coumarin-bound deca-peptide: coumarin-bound deca-peptide including the EVEFR sequence; possibly coumarin-CO-REVNFEVEFR (coumarin-REVNFEVEFR; not fully specified; printed as coumarin-CO-REVNFEVEFR; reading uncertain)”, the “competition with biotinylated EVEFR” value in the experiment with anti-EVEFR antibodies was “did not compete well”.
With “VEFR (peptide simulating cleaved portion from carboxy side of novel sequence at known enzyme cleavage site, lacking end amino acid)”, in the experiment on anti-EVEFR antibodies, the “competition with biotinylated EVEFR” value was “slight competitive interference”.
With SEVNLD, the “competition against biotinylated-SEVNF” value in the experiment with 2081 antibody is reported as “could not compete”.
Still for that read-out and setting: to SEVNFE belongs “could not compete”.
With “KYAA: APP695-derived polypeptide with KYAA at the β-secretase cleavage site”, in the experiment on HEK293T cells, the Aβ level entry is “below the limit of detection” and the sAPP level result is “below the limit of detection”.
As for “NYDV: APP695-derived polypeptide with NYDV at the β-secretase cleavage site”, in the experiment with HEK293T cells, the Aβ level entry was “below the limit of detection” and the sAPP level entry is on record as “below the limit of detection”.
On to SEVN, for which the “competition against biotinylated-SEVNF” value with 2081 antibody is recorded as “could not compete”.
In the case of “NFAV: APP695-derived polypeptide with NFAV at the β-secretase cleavage site”, in the experiment on HEK293T cells, the Aβ level result was “below the limit of detection” and the sAPP level result is recorded as “below the limit of detection”.
On to “NFTV: APP695-derived polypeptide with NFTV at the β-secretase cleavage site”, for which, in the experiment on HEK293T cells, the Aβ level entry is recorded as “below the limit of detection” and the sAPP level result is given as “below the limit of detection”.
In the case of “NLDV: APP695-derived polypeptide with NLDV at the β-secretase cleavage site”, the “Aβ production compared with Swedish mutant and wild type APP695” value with HEK293T cells is given as “over three times the level of wild type APP695”. Further, the “Aβ Level produced by APP β-site mutants in HEK293T cells” value in the experiment with HEK293T cells (media 48 hrs post transfection, IP/Western with G2-10, densitometry, GFP control = 1X) is recorded as 10–15X. Besides, the “production of Aβ” value in experiment [1] is given as “no production of Aβ was observed”.
On to SEVNL, for which the “competition against biotinylated-SEVNF” value with 2081 antibody is “limited amount of competition”. The “effectiveness of competition relative to SEVNF” value in the experiment on 2081 antibody (less effective than SEVNF) is given as 100 fold.
With “NYAA: APP695-derived polypeptide with NYAA at the β-secretase cleavage site”, in the experiment on HEK293T cells, the Aβ level entry was “below the limit of detection” and the sAPP level result is on record as “below the limit of detection”.
For “FFAV: APP695-derived polypeptide with FFAV at the β-secretase cleavage site”, in the experiment with HEK293T cells, the Aβ level entry is “below the limit of detection” and the sAPP level entry is recorded as “below the limit of detection”.
Turning to “NFEV: APP695-derived polypeptide with NFEV at the P2-P1-P1′-P2′ β-secretase cleavage site”, in the experiment with HEK293T cells, the “Aβ production compared with Swedish mutant and wild type APP695” value was “high levels of Aβ, comparable to that generated by the APP Swedish mutant”. Moreover, the “rate of cleavage relative to similar substrate with wild-type KMDA sequence” value with HEK293T cells (in an APP backbone, expressed in tissue culture cells) is 15–20 times. In experiment [1], the “production of Aβ” value is given as “no production of Aβ was observed”.
Turning to “KFAA: APP695-derived polypeptide with KFAA at the β-secretase cleavage site”, in the experiment with HEK293T cells, the Aβ level entry is “below the limit of detection” and the sAPP level entry is reported as “below the limit of detection”.
In the case of “NYEA: APP695-derived polypeptide with NYEA at the β-secretase cleavage site”, in the experiment with HEK293T cells, the Aβ level result is “below the limit of detection” and the sAPP level result is reported as “below the limit of detection”.
As to “NFEA: APP695-derived polypeptide with NFEA at the β-secretase cleavage site”, in the experiment on HEK293T cells, the Aβ level entry was “below the limit of detection” and the sAPP level entry is on record as “below the limit of detection”. In experiment [1], the “production of Aβ” value is recorded as “no production of Aβ was observed”.
As to acetylated-EVEFR (Ac-EVEFR), the “competition with biotinylated EVEFR” value with anti-EVEFR antibodies is “does not bind well to the antibody”.
